Results as given in patent US20020013478A1, “Calanolide analogues and methods of their use” (Sarawak Medichem Pharmaceuticals,Inc., priority 1994, published 2002).
≈ marks a conversion by molar mass, not a printed value. Read-outs that look alike come from different tables or passages of the source.

Legend:
[1] = system: African green monkey kidney (BSC-1) cells; experiment: Cytotoxicity run with the measles assay
From the text: Virus strain: CC (Source: Pennsylvania State University) Cell line: African green monkey kidney (BSC-1) cells.

measles = experiment: Measles virus inhibition of viral CPE in BSC-1 cells; type: cell-based; settings: for EC50: Table II footnote g, read-out: Others EC50, against measles
EBV = EBV assay: superinfection of Raji or Daudi cells with P3HR-1, immunofluorescence for EA and VCA; type: cell-based, Epstein-Barr virus
Method in brief: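 Raji cells (Burkitt's lymphoma, 60 EBV genomes/cell) or Daudi cells were superinfected with P3HR-1 EBV, and drugs were added after 45 min adsorption at 37 °C and washing. After 48 h, smears were stained with monoclonal antibodies to EA components and VCA plus fluorescein anti-mouse Ig. Fluorescence-positive cells were counted to give total EA- or VCA-positive cells per culture.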

CEM-SS cells = experiment: CEM-SS MTT assay, cytotoxicity (Table I); type: cell-based, human
HIV-1 = experiment: microbe, parasite or virus in culture; settings: Human immunodeficiency virus 1, CEM-SS

| SMILES | IC50 ([1]; read-out: Others IC50, against measles, Table II footnote g) | EC50 (measles) | EBV EC50 (EBV; Table II) | IC50 (CEM-SS cells) | IC50 ([1]; Chlorocebus sabaeus, BSC-1, read-out: Others IC50, against measles) | EC50 (measles; Measles morbillivirus, BSC-1) | potency against measles (measles; text summary of Table II) | EC50 (HIV-1) | EC50 (EBV; human gammaherpesvirus 4, Table II) | potency against EBV (EBV; text summary of Table II) | IC50 (CEM-SS cells; Homo sapiens) |
| --- | --- | --- | --- | --- | --- | --- | --- | --- | --- | --- | --- |
| CCCc1cc(=O)oc2c3c(c4c(c12)OC(C)(C)C=C4)OC(C)C(C)C3=O (racemic) [(±)-7a] | 333 µM | 13.7 µM | >50 µg/mL | 12 µM | – | – | – | – | – | – | – |
| CCCc1cc(=O)oc2c3c(c4c(c12)OC(C)(C)C=C4)O[C@H](C)[C@@H](C)C3=O [(+)-7, 10(R),11(R)-trans-Dihydro6,6,10,11-tetramethyl-4-propyl-2H,6H,12H-benzo [1,2-b:3,4-b′:5,6-b″]tripyran-2,12-dione] | – | – | – | – | 10 µM | 3 µM | potent | 0.68 µM | 0.94 µg/mL (≈ 2.55 µM) | very potent | 72.8 µM |
